Calls of active or inactive are those of the source. The rule behind the calls is not given here.

Assay [1] has as its system HeLa. Kind of assay: Cytotoxicity against human HeLa cells after 48 hrs by MTT assay. It counts as functional, cell-based. (In general: Tetrazolium dyes change colour on reduction, which living cells bring about.)
Assay [2] in a line: Binding affinity to 5'-FAM/3'-TAMARA labelled c-KIT1 G-quadruplex DNA (unknown origin) assessed as change in melting temperature at 2 uM by FRET assay.
Assay [3] is described as follows: Binding affinity to biotinylated duplex DNA (unknown origin) by SPR assay. For orientation: SPR reads the build-up and loss of mass on a sensor chip optically.
Assay [4] is described as follows: Binding affinity to F10T duplex DNA (unknown origin) assessed as change in melting temperature at 1 uM by FRET assay.
In assay [5] the test system is A549. Briefly: Cytotoxicity against human A549 cells after 48 hrs by MTT assay. In kind it is functional, cell-based. The note with it: A549, 48 h.
Assay [6] in a line: Binding affinity to F10T duplex DNA (unknown origin) assessed as change in melting temperature at 2 uM by FRET assay.
The test system of assay [7] is K562. Briefly: Cytotoxicity against human K562 cells after 48 hrs by MTT assay. It counts as functional, cell-based. The conditions noted are these: K562, 48 h.
Assay [8] can be described thus: Binding affinity to 5'-FAM/3'-TAMARA labelled c-KIT1 G-quadruplex DNA (unknown origin) assessed as change in melting temperature at 1 uM by FRET assay.
Assay [9] in a line: Binding affinity to 5'-FAM/3'-TAMARA labelled c-KIT2 G-quadruplex DNA (unknown origin) assessed as change in melting temperature at 1 uM by FRET assay.
The test system of assay [10] is BJ. Briefly: Cytotoxicity against human BJ cells after 48 hrs by MTT assay. It counts as cell-based.
Assay [11] is described as follows: Binding affinity to 5'-FAM/3'-TAMARA labelled c-KIT1 G-quadruplex DNA (unknown origin) assessed as change in melting temperature at 2 uM in presence ds26 DNA by FRET assay.
The nature of assay [12]: Selectivity ratio of Kd for biotinylated duplex DNA (unknown origin) to Kd for biotinylated c-KIT1 G-quadruplex DNA (unknown origin).
Assay [13] can be described thus: Binding affinity to biotinylated c-KIT1 G-quadruplex DNA (unknown origin) by SPR assay.

In the case of `CCN(CC)CCNc1c2c(nc3ccccc13)-c1cc(OC)c(OC)cc1CC2`, the IC50 in assay [1] was 17.9 µM; in assay [5] it was 5.8 µM; in [7] it was 8 µM; in assay [10], 22.7 µM. Moreover, the ΔTm came to 15.7 °C in assay [2]; 0.6 °C in assay [4]; 0.9 °C in assay [6]; 9.8 °C in [8]; 6.5 °C in assay [9]. Also, the Kd is 5.9 µM in [3] and 2.7 µM in assay [13]. In addition, the outcome in assay [11] was Active. In [12], the Selectivity ratio was found to be 2.2.
`COc1cc2c(cc1OC)-c1c(c(NCCCN3CCCC3)c3ccccc3[n+]1C)CC2`: the IC50 in assay [1] was > 50 µM; in assay [5], > 50 µM; in [7] it was 19.2 µM; in assay [10], > 50 µM. The ΔTm in assay [2] amounted to 14 °C; in [4], 1.1 °C; in assay [6], 0.3 °C; in [8], 10.7 °C; in [9], 4.7 °C. The results for the Kd in assay [3] and in assay [13] were > 20 µM and 3.3 µM, respectively. Besides, the result in [11] was Active. For the same molecule, the Selectivity ratio in [12] was > 6.1.
As to `COc1cc2c(cc1OC)-c1nc3ccccc3c(C(=O)NCCN3CCCC3)c1CC2`, the IC50 in [1], in assay [5], in [7] and in [10] was > 50 µM in each case. For the same molecule, the ΔTm in assay [2] worked out at 3.4 °C; in assay [4] it was 0.1 °C; in assay [6], 0.6 °C; in assay [8], 2.2 °C; in assay [9], 0.6 °C. Moreover, the Kd in assay [3] and in assay [13] was > 20 µM in each case.
With `COc1cc2c(cc1OC)-c1c(c(NCCN(C)C)c3ccccc3[n+]1C)CC2`, the IC50 was > 50 µM in assay [1], > 50 µM in [5], 33.5 µM in assay [7] and > 50 µM in assay [10]. For the same molecule, the ΔTm in assay [2] was found to be 7.4 °C; in assay [4], 0.8 °C; in assay [6], 0.3 °C; in assay [8], 6.7 °C; in assay [9], 2.8 °C. Moreover, the Kd in [3] is > 20 µM; in assay [13] it was 8 µM. The outcome in assay [11] was Active. The Selectivity ratio in [12] was > 2.5.
Take `COc1cc2c(cc1OC)-c1nc3ccccc3c(C(=O)NCCCN3CCCCC3)c1CC2`: the IC50 in [1], in [5], in assay [7] and in assay [10] was > 50 µM in each case. For the same molecule, the ΔTm in assay [2] amounted to 5.2 °C; in assay [4], 0.3 °C; in assay [6], 0.6 °C; in [8] it was 3.3 °C; in assay [9], 0.6 °C. For the same molecule, the Kd in assay [3] is > 20 µM; in [13], 3.7 µM. The Selectivity ratio in assay [12] was > 5.4.
As to `COc1cc2c(cc1OC)-c1nc3ccccc3c(NCCCN3CCCC3)c1CC2`, the IC50 in assay [1] worked out at 4.3 µM; in assay [5] it was 3.9 µM; in [7] it was 4.2 µM; in assay [10], 6.7 µM. For the same molecule, the ΔTm in assay [2] amounted to 20.5 °C; in assay [4], 1.1 °C; in [6], 2.9 °C; in assay [8], 10.8 °C; in assay [9] it was 8.6 °C. Further, the Kd in [3] was > 20 µM; in assay [13] it was 2.9 µM. For the same molecule, in [11], the result was Active. In addition, the Selectivity ratio in assay [12] is > 6.9.
`COc1cc2c(cc1OC)-c1nc3ccccc3c(NCCN3CCCCC3)c1CC2`: the IC50 in [1] is 39.7 µM; in assay [5] it was 18.5 µM; in assay [7], 13.1 µM; in [10] it was > 50 µM. Also, the ΔTm worked out at 7.8 °C in assay [2]; 0.1 °C in assay [4]; 0.2 °C in assay [6]; 4.7 °C in assay [8]; 2.6 °C in assay [9]. Further, the figures for the Kd in assay [3] and in [13] were > 20 µM and 7.8 µM, respectively. Besides, the outcome in [11] was Active. Also, in assay [12], the Selectivity ratio was > 2.6.
On to `COc1cc2c(cc1OC)-c1c(c(NCCN3CCCC3)c3ccccc3[n+]1C)CC2`, for which the IC50 in [1] is 44.3 µM; in [5], 36 µM; in assay [7], > 50 µM; in assay [10], 36 µM. Besides, the ΔTm in assay [2] amounted to 11.3 °C; in [4] it was 0.9 °C; in assay [6], 0.4 °C; in [8] it was 7.7 °C; in assay [9], 3.7 °C. Further, the equilibrium dissociation constant (Kd) in assay [3] was > 20 µM; in assay [13], 2.2 µM. The outcome in assay [11] was Active. Also, in assay [12], the Selectivity ratio is > 9.1.
Regarding `COc1cc2c(cc1OC)-c1nc3ccccc3c(NCCCN3CCN(C)CC3)c1CC2`, the IC50 in assay [1] is 9.6 µM; in assay [5], 6.4 µM; in assay [7], 4.2 µM; in [10], 13.7 µM. In addition, the ΔTm in assay [2] is 22.9 °C; in assay [4], 1.3 °C; in [6], 1.6 °C; in assay [8], 18.7 °C; in assay [9], 8.6 °C. In addition, the Kd was > 20 µM in assay [3] and 2.8 µM in assay [13]. Moreover, the result in [11] was Active. Also, the Selectivity ratio in assay [12] was > 7.1.
As to `CCN(CC)CCNc1c2c([n+](C)c3ccccc13)-c1cc(OC)c(OC)cc1CC2`, the IC50 in [1] is > 50 µM; in assay [5], > 50 µM; in assay [7], 24.9 µM; in assay [10], > 50 µM. In addition, the ΔTm came out at 10.3 °C in [2]; 0.9 °C in assay [4]; 0.5 °C in assay [6]; 8.5 °C in assay [8]; 3.3 °C in [9]. Moreover, the Kd in [3] is > 20 µM; in [13] it was 3.9 µM. The result in assay [11] was Active. The Selectivity ratio in assay [12] is > 5.1.
Turning to `COc1cc2c(cc1OC)-c1nc3ccccc3c(NCCN3CCN(C)CC3)c1CC2`, the IC50 in [1] amounted to 5.3 µM; in [5] it was 3 µM; in [7], 22.9 µM; in assay [10], 7.9 µM. Besides, the ΔTm worked out at 22.6 °C in [2]; 1.7 °C in assay [4]; 2 °C in [6]; 17.4 °C in assay [8]; 9 °C in assay [9]. The Kd was 17 µM in assay [3] and 3.3 µM in [13]. In addition, the result in assay [11] was Active. Besides, in assay [12], the Selectivity ratio was found to be 5.2.
As to `COc1cc2c(cc1OC)-c1nc3ccccc3c(NCCN3CCCC3)c1CC2`, the IC50 was 4.6 µM in assay [1], 2.8 µM in [5], 4.8 µM in [7] and 5.2 µM in assay [10]. Also, the ΔTm was determined as 16.7 °C in assay [2]; 0.8 °C in assay [4]; 1.2 °C in assay [6]; 11.1 °C in [8]; 6.2 °C in assay [9]. Also, the Kd in assay [3] amounted to 7.7 µM; in [13], 2.5 µM. For the same molecule, the result in [11] was Active. Moreover, in assay [12], the Selectivity ratio worked out at 3.1.
`COc1cc2c(cc1OC)-c1nc3ccccc3c(Cl)c1CC2`: the ΔTm in [2] was 0.2 °C; in assay [4], 0.7 °C; in assay [6], 0.1 °C; in assay [8], 0.1 °C; in assay [9], 0.1 °C. The Kd in [3] and in assay [13] was > 20 µM throughout.
Regarding `COc1cc2c(cc1OC)-c1nc3ccccc3c(NCCCN(C)C)c1CC2`, the half-maximal inhibitory concentration (IC50) was 5.1 µM in assay [1], 3.6 µM in [5], 6.7 µM in [7] and 4.2 µM in [10]. The ΔTm in assay [2] came to 20.4 °C; in assay [4] it was 1.3 °C; in assay [6], 2.3 °C; in assay [8] it was 12.3 °C; in assay [9], 9 °C. The Kd in [3] was > 20 µM; in assay [13] it was 3.5 µM. Further, the outcome in assay [11] was Active. Besides, the Selectivity ratio in [12] is > 5.7.
For the molecule `CCN(CC)CCCNC(=O)c1c2c(nc3ccccc13)-c1cc(OC)c(OC)cc1CC2`, the IC50 in [1], in [5], in assay [7] and in [10] was > 50 µM in each case. Also, the ΔTm is 6.6 °C in assay [2]; 0.5 °C in [4]; 0.5 °C in [6]; 3.4 °C in [8]; 0.6 °C in [9]. For the same molecule, the results for the Kd in [3] and in assay [13] were > 20 µM and 2.8 µM, respectively. For the same molecule, in assay [12], the Selectivity ratio was > 7.1.
`COc1cc2c(cc1OC)-c1nc3ccccc3c(NCCN(C)C)c1CC2`: the IC50 in [1] was found to be 11.7 µM; in [5] it was 5.6 µM; in assay [7] it was 25.8 µM; in assay [10], 19 µM. Further, the ΔTm in [2] amounted to 16.4 °C; in assay [4] it was 0.7 °C; in [6], 0.9 °C; in assay [8], 12.1 °C; in assay [9], 6.7 °C. For the same molecule, the equilibrium dissociation constant (Kd) in [3] came to 9.4 µM; in assay [13], 4.2 µM. The result in assay [11] was Active. For the same molecule, in assay [12], the Selectivity ratio turned out to be 2.2.
Consider `COc1cc2c(cc1OC)-c1c(cc3c(OCCCN4CCCCC4)c(OC)ccc3[n+]1C)CC2`, for which the ΔTm in assay [2] worked out at 12.2 °C; in assay [4], 0.2 °C; in [6] it was 0.7 °C; in [8] it was 4.4 °C; in assay [9], 4.4 °C. Moreover, the results for the Kd in assay [3] and in [13] were > 20 µM and 2.8 µM, respectively. The outcome in assay [11] was Active. Further, the Selectivity ratio in assay [12] was > 7.1.

Usually IC50 stands for the concentration that inhibits the measured activity by half. A higher IC50 goes with weaker potency. For orientation: ΔTm means the change in melting temperature against a reference sample. Broadly, the Kd is the free concentration of one partner at which half of the binding sites on the other are occupied at equilibrium, for simple one-to-one binding. Read a high Kd as lower affinity.

The values are drawn from ChEMBL document CHEMBL4011592, “Synthesis and evaluation of 7-substituted-5,6-dihydrobenzo[c]acridine derivatives as new c-KIT promoter G-quadruplex binding ligands” (Eur J Med Chem, 2017).
